# Assay results as given in patent US20110112308A1 (NOVARTIS AG, priority 2006, published 2011).
# Where a name gives a salt, the structure may show the parent alone.
# Experiments:
# [1] = Solid samples held at 93% r.h. (XRPD, TGA); format: physicochemical; conditions: for Solid State (EQ 93% r.h.) Crystallinity by XRPD: either 7 or 10 days
# Protocol: An approximate solubility of the below-listed salts was determined in water and at pH 1 by suspending 5-15 mg of the salt in 1 mL of solvent. The samples were allowed to equilibrate at ambient temperature for at least 20 hours. The supernatant was filtered and used for the solubility determination, which was done gravimetrically, for the aqueous solubility, and by UV-VIS spectroscopy for pH 1. The solid residue was analyzed by XRPD. […] They were subsequently analyzed by XRPD and TGA, if the latter deemed necessary. Only irreversible or slowly reversible events can be detected.
# Solid-state stability = format: physicochemical; conditions: for Bulk stability (XRPD): 1 week
# Protocol: (§1) All samples were prepared/diluted to a concentration of 0.2 mg/mL in methanol prior to analysis by HPLC. A freshly prepared sample of each salt was used as the reference standard for external standard calibration analysis.
# [2] = Stability of mixtures with excipients; format: physicochemical
# Protocol: as §1
# [3] = Solution stability (HPLC); format: physicochemical
# Protocol: as §1
# [4] = Intrinsic dissolution rate, rotation disk method; format: physicochemical
# Protocol: Intrinsic Dissolution: […] […] Pellets of the other salts remained intact for at least several minutes enabling the determination of the intrinsic dissolution rate. Dissolution rate studies were performed using the rotation disk method ([…] Instrument). A single rotation speed of 200 r.p.m. was used to dissolve drug substance into a 500 mL vessel at 37° C. The solution was continuously pumped through a UV cell measurement and returned to the dissolution vessel.
# [5] = Solubility, 24-hour equilibration at room temperature; format: physicochemical
# Protocol: Aqueous Solubility: A carefully weighted amount (20-50 mg) of sample is dissolved in 1 ml of solvent with 24-hour equilibration at room temperature. The solubility was determined either gravimetrically or by UV-VIS spectrometry. The pH of the clear solution was also measured. However, the difficulty of determining salt solubilities in water should be stressed, since upon dissolution dissociation to the free form is possible, which affects both the solubility and the pH. It's not unlikely that attempts to make solutions of a salt at a concentration well below the reported solubility of the salt to be unsuccessful (for a full discussion see: M. Pudipeddi, A. T. M. Serajuddin, D. J. W. Grant, and P. H. Stahl in “Handbook of Pharmaceutical Salts Properties Selection and Use” page 27 and references therein).
# [6] = Equilibration in solvents and buffers: form conversion
# [7] = Bulk stability, 2 weeks, 50° C.
# [8] = Bulk stability, 2 weeks, 50° C./20% water
# [9] = Bulk stability, 2 weeks, 50° C./75% r.h.
# [10] = Light study, 1200 kLux (300-800 nm)
# [11] = Mixture 1: 50% PVP + 50% Crospovidone, 50° C./75% r.h., 2 weeks
# [12] = Mixture 2: 50% Starch 1500 + 5% MCC 102, 50° C./75% r.h., 2 weeks
# [13] = Mixture 3: 5% PVP + 5% Crospovidone + 10% Starch 1500 + 80% MCC 102, 50° C./75% r.h., 2 weeks
# [14] = Mixture 4: 99% Lactose + 1% BHT/BHA, 50° C./75% r.h., 2 weeks
# [15] = Mixture 5: 99% Mannitol + 1% BHT/BHA, 50° C./75% r.h., 2 weeks
# [16] = Mixture 6: 50% Mannitol + 47% HPCLH21 + 1% BHT/BHA + 2% Magnesium Stearate, 50° C./75% r.h., 2 weeks
# [17] = Mixture 7: 50% Cetyl Alcohol + 49% HPCLH21 + 1% Magnesium Stearate, 50° C./75% r.h., 2 weeks
# [18] = Mixture 8: 100% PEG 3350, 50° C./75% r.h., 2 weeks
# [19] = 2 mg/mL in methanol, 1 week at 50° C.
# [20] = 2 mg/mL in water, 1 week at 50° C.
# [21] = 2 mg/mL, 100 mM lactate buffer pH 3.5, 1 week at 50° C.
# [22] = 2% in 0.5% HPMC 4000, 1 day at RT
# [23] = 2% in 0.5% Klucel HF, 1 day at RT
# [24] = 2% in 0.8% Tween 80, 1 day at RT
# [25] = 5% solution, 1 day at RT (diluted 1:100 in pH 6.8 buffer)
compound,measurement,setting,value
1:1 propionate salt of N-hydroxy-3-[4-[[[2-(2-methyl-1H-indol-3-yl)ethyl]amino]methyl]phenyl]-2E-2-propenamide,Solid State (EQ 93% r.h.) Crystallinity by XRPD,[1],Poor
"CC(O)C(=O)O.Cc1[nH]c2ccccc2c1CCNCc1ccc(/C=C/C(=O)NO)cc1.O (racemic) [Monohydrate DL-lactate salt, 1:1 monohydrate DL-lactate salt of N-hydroxy-3-[4-[[[2-(2-methyl-1H-indol-3-yl)ethyl]amino]methyl]phenyl]-2E-2-propenamide]",Bulk stability (XRPD),Solid-state stability; 80° C.,no change
same,Bulk stability (XRPD),Solid-state stability; 80° C./75% r.h.,no change
same,% DP (total degradation products),Solid-state stability; [7],0.43 % area
same,assay,Solid-state stability; [7],[99.31]
same,% DP (total degradation products),Solid-state stability; [8],0.51 % area
same,assay,Solid-state stability; [8],[100.3]
same,% DP (total degradation products),Solid-state stability; [9],0.43 % area
same,assay,Solid-state stability; [9],[99.86]
same,% DP (total degradation products),Solid-state stability; [10],1.68 % area
same,CL (appearance),Solid-state stability; [10],C (C = medium discoloration)
same,assay,Solid-state stability; [10],[98.65]
same,% DP (total degradation products),[2]; [11],0.6 % area
same,% DS (drug substance),[2]; [11],99.4 % area
same,% DP (total degradation products),[2]; [12],0.4 % area
same,% DS (drug substance),[2]; [12],99.6 % area
same,% DP (total degradation products),[2]; [13],0.5 % area
same,% DS (drug substance),[2]; [13],99.5 % area
same,% DP (total degradation products),[2]; [14],0.5 % area
same,% DS (drug substance),[2]; [14],99.5 % area
same,% DP (total degradation products),[2]; [15],0.5 % area
same,% DS (drug substance),[2]; [15],99.5 % area
same,% DP (total degradation products),[2]; [16],0.6 % area
same,% DS (drug substance),[2]; [16],99.3 % area
same,% DP (total degradation products),[2]; [17],0.5 % area
same,% DS (drug substance),[2]; [17],99.5 % area
same,% DP (total degradation products),[2]; [18],0.6 % area
same,% DS (drug substance),[2]; [18],99.4 % area
same,% DP (total degradation products),"[2]; Standard, freshly prepared",0.4 % area
same,% DS (drug substance),"[2]; Standard, freshly prepared",99.6 % area
same,pH of initial mixture,"[3]; 2 mg/mL in 100 mM lactate buffer, pH 3.5",3.57
same,% DP (total degradation products),[3]; [19],0.71 % area
same,assay,[3]; [19],[102.8]
same,pH of initial mixture,[3]; 2 mg/mL in water,6.30
same,% DP (total degradation products),[3]; [20],1.22 % area
same,CL (appearance),[3]; [20],A↓
same,assay,[3]; [20],[98.85]
same,% DP (total degradation products),[3]; [21],1.31 % area
same,CL (appearance),[3]; [21],A↓*
same,assay,"[3]; 2 mg/mL, 100 mM lactate buffer pH 3.5, 1 week at 50° C., external standard",[99.12]
same,% DP (total degradation products),"[3]; 2% in 0.5% CMC, 1 day at RT",0.49 % area
same,CL (appearance),"[3]; 2% in 0.5% CMC, 1 day at RT",A↓↓
same,assay,"[3]; 2% in 0.5% CMC, 1 day at RT",[77.50]
same,% DP (total degradation products),[3]; [22],0.41 % area
same,assay,[3]; [22],[96.42]
same,% DP (total degradation products),[3]; [23],0.43 % area
same,assay,[3]; [23],[96.99]
same,% DP (total degradation products),[3]; [24],0.42 % area
same,assay,[3]; [24],[95.06]
same,% DP (total degradation products),[3]; [25],0.52 % area
same,CL (appearance),[3]; [25],A↓
same,assay,[3]; [25],[99.24]
same,Unstressed (% Area),[3]; unstressed baseline of the stability study,99.51% Area
same,Intrinsic Dissolution Rate,[4]; 0.1N HCl (Table 19),0.02
same,Intrinsic Dissolution Rate,[4]; Water (Table 19),0.06
same,Intrinsic Dissolution Rate,[4]; pH = 4 (Table 19),0.08
"CC(=O)O.Cc1[nH]c2ccccc2c1CCNCc1ccc(/C=C/C(=O)NO)cc1 [Acetate, 1:1 acetate salt of N-hydroxy-3-[4-[[[2-(2-methyl-1H-indol-3-yl)ethyl]amino]methyl]phenyl]-2E-2-propenamide]",Solid State (EQ 93% r.h.) Crystallinity by XRPD,[1],Good
same,Solid State (EQ 93% r.h.) Form by XRPD,[1]; either 7 or 10 days (time not given),converted to a new form
same,Solid State (EQ 93% r.h.) LOD by TGA,"[1]; after 93% r.h. storage, (105° C.)",LOD = 8.8%
"CC(O)C(=O)O.Cc1[nH]c2ccccc2c1CCNCc1ccc(/C=C/C(=O)NO)cc1 [Anhydrous DL-lactate salt, 1:1 anhydrous DL-lactate salt of N-hydroxy-3-[4-[[[2-(2-methyl-1H-indol-3-yl)ethyl]amino]methyl]phenyl]-2E-2-propenamide]",Intrinsic Dissolution Rate,[4]; 0.1N HCl (Table 19),0.13
same,Intrinsic Dissolution Rate,[4]; Water (Table 19),0.14
same,Intrinsic Dissolution Rate,[4]; pH = 4 (Table 19),0.09
"Cc1[nH]c2ccccc2c1CCNCc1ccc(/C=C/C(=O)NO)cc1.O=C(O)c1ccccc1 [Benzoate, 1:1 benzoate salt of N-hydroxy-3-[4-[[[2-(2-methyl-1H-indol-3-yl)ethyl]amino]methyl]phenyl]-2E-2-propenamide]",Solid State (EQ 93% r.h.) Form by XRPD,[1]; 7 days,No change
"CC(O)C(=O)O.Cc1[nH]c2ccccc2c1CCNCc1ccc(/C=C/C(=O)NO)cc1 [DL-lactate salt, lactate salt of N-hydroxy-3-[4-[[[2-(2-methyl-1H-indol-3-yl)ethyl]amino]methyl]phenyl]-2E-2-propenamide]","stability with all excipient mixtures tested, in words",[2]; after 2 weeks at 50° C./75% r.h.,very good stability
same,"aqueous solubility, in words",[5],excellent
same,"stability characteristics, in words",[3]; both in solution and in the solid state,very good stability
same,"intrinsic dissolution (rate), in words",[4],good
Cc1[nH]c2ccccc2c1CCNCc1ccc(/C=C/C(=O)NO)cc1 [Form A of the mesylate salt],conversion upon equilibration,[6]; 0.1 N HCl,to the hydrochloride salt
same,conversion upon equilibration,[6]; phosphate buffer (pH=6.8),to the free base
same,conversion upon equilibration,[6]; water / aqueous solutions,converts to form B
"Cc1[nH]c2ccccc2c1CCNCc1ccc(/C=C/C(=O)NO)cc1.Cc1[nH]c2ccccc2c1CCNCc1ccc(/C=C/C(=O)NO)cc1.O=C(O)/C=C/C(=O)O [Fumarate, 2:1 fumarate salt (hemi-fumarate) of N-hydroxy-3-[4-[[[2-(2-methyl-1H-indol-3-yl)ethyl]amino]methyl]phenyl]-2E-2-propenamide]",Solid State (EQ 93% r.h.) Form by XRPD,[1]; 10 days,No change
"Cc1[nH]c2ccccc2c1CCNCc1ccc(/C=C/C(=O)NO)cc1.O=C(O)c1cc(O)ccc1O [Gentisate, 1:1 gentisate salt of N-hydroxy-3-[4-[[[2-(2-methyl-1H-indol-3-yl)ethyl]amino]methyl]phenyl]-2E-2-propenamide]",Solid State (EQ 93% r.h.) Form by XRPD,[1]; 10 days,No change
"Cc1[nH]c2ccccc2c1CCNCc1ccc(/C=C/C(=O)NO)cc1.Cc1[nH]c2ccccc2c1CCNCc1ccc(/C=C/C(=O)NO)cc1.O=C(O)CC(=O)O [Malonate, 2:1 malonate (hemi-malonate) salt of N-hydroxy-3-[4-[[[2-(2-methyl-1H-indol-3-yl)ethyl]amino]methyl]phenyl]-2E-2-propenamide]",Solid State (EQ 93% r.h.) Form by XRPD,[1]; 10 days,No change
"Cc1[nH]c2ccccc2c1CCNCc1ccc(/C=C/C(=O)NO)cc1.O=P(O)(O)O [Phosphate, 1:1 phosphate salt of N-hydroxy-3-[4-[[[2-(2-methyl-1H-indol-3-yl)ethyl]amino]methyl]phenyl]-2E-2-propenamide]",Solid State (EQ 93% r.h.) Form by XRPD,[1]; 7 days,No change
"Cc1[nH]c2ccccc2c1CCNCc1ccc(/C=C/C(=O)NO)cc1.Cc1[nH]c2ccccc2c1CCNCc1ccc(/C=C/C(=O)NO)cc1.O=C(O)CCC(=O)O [Succinate, 2:1 succinate (hemi-succinate) salt of N-hydroxy-3-[4-[[[2-(2-methyl-1H-indol-3-yl)ethyl]amino]methyl]phenyl]-2E-2-propenamide]",Solid State (EQ 93% r.h.) Form by XRPD,[1]; 10 days,No change
